Measured values published in patent US10569270B2, “Screening kit and method” (CELLPLY S.R.L., priority 2016, dated 2020).
pIC50: −log10 of the molar value.

Key:
[1] = system: Jurkat cells; assay: calcium signal (Fluo-4) of Jurkat cells in open microwells after stimulation; format: cell-based, human; conditions: Fluo-4 labeled Jurkat cells
Experimental: Cells from the Jurkat cell line (human Leukemic T cells) were obtained from ATCC and cultured in RPMI 1640 medium supplemented with 10% inactivated FBS medium, 10 mM Hepes, 2 mM Ultraglutamine and 1 mM sodium pyruvate, 1% Penicillin/Streptomycin in 25 cm^2 flasks at 37° C. and 5% CO2.
For the assay in open microwells according to the present invention, Jurkat cells were labeled with Fluo-4 20 μM in HBSS, centrifuged and resuspended in serum-free medium (RPMI 1640 with 25 mM Hepes or HBSS) at a concentration of 1.6×10^6 cells/mL in 1.5 mL Eppendorf tubes used as input reservoirs for the open reversed microwell system. Subsequent to the deposition of Jurkat cells in the microwells (approximately 1-10 cells per microwell) and washing the channels with HBSS, the solutions containing Ionomycin (2 μg/mL) or OKT3 (10 μg/mL) are made to flow into specific microchannels of the open microwell system via peristaltic pump. The images were acquired by a camera connected to the microscope at a distance of 1 minute and processed by software developed in LabView, quantifying the dynamic performance of the same signal on each sample cell.

[2] = system: SU-DHL-4 cancer cells; assay: open well assay of Rituximab on SU-DHL-4 lymphoma cells (Calcein AM / PI, time-lapse); format: cell-based; conditions: Rituximab 10 μg/mL, hS 1%, PI 5 μM; images up to 60 min; versus CTRL; FIG. 11A
Experimental: Cells: SU-DHL-4 lymphoma cells and Raji cells were used (ATCC CCL-86). 3·10^5 cells/mL were cultured in RPMI medium supplemented with 10% FBS, 1% […]/streptomycin at 37° C., 95% RH, 5% CO2. The cells were amplified, dividing them when in confluence. PBMC were isolated from blood by centrifugation in gradient. Whole blood from healthy donors was collected into tubes treated with anticoagulants according to the directive “ethical principles and guidelines for the protection of humans in research”. Isolated PBMC were washed twice with 10 mL cold HBSS after lysis of red blood cells. The concentration of cells and their viability was determined with Trypan Blue on haemocytometer. The concentration was adjusted to 1 million cells/mL.
Different batches of SU-DHL-4 or Raji cells were harvested at the peak of their growth, washed with PBS and counted in a hemocytometer with Trypan Blue. The cell concentration was adjusted to 1 million cells/mL and they were labeled with Calcein AM (CAM) 5 nM for flow cytometry and 250 nM for the assay according to the present invention. […] Cell viability was finally assessed by PI and flow cytometry. […]
The images were acquired brightfield (BF) to evaluate the morphological characteristics and then in fluorescence to evaluate the signal in DAPI bands (ex: 360/40 nm, 460/50 nm), FITC (ex: 480/30 nm, em: 535/40 nm), TRITC (ex: 540/25 nm, em: 605/55 nm). […]

[3] = system: leukemic cell lines (KG-1, Kasumi-1 and HL-60); assay: dose/response analysis of leukemic cell lines to idarubicin in the open reversed microwell system; format: cell-based; conditions: leukemic cell line (one of KG-1, Kasumi-1, HL-60), FIG. 9C

In the case of `C[C@H](CCC(=O)O)C[C@H](C)C[C@H](C)C(=O)/C=C(\O)[C@H](C)C[C@H](C)C/C=C/[C@@H](C)[C@@H](O)[C@@H](C)[C@@H](O)C[C@@H]1CC[C@@](C)([C@H]2CC[C@@](C)([C@@H](C)O)O2)O1` [Ionomycin], the “average increase of the signal with respect to the baseline” value ([1]; Ionomycin 2 μg/mL, series of 10 experiments) was 193%+/−139%.
For RTX: monoclonal antibody Rituximab, the “dead cells (PI, TRITC channel) in time-lapse images” value [2] was “present only at T2 and T3 in the RTX group”.
`CC(=O)[C@]1(O)Cc2c(O)c3c(c(O)c2[C@@H](O[C@H]2C[C@H](N)[C@H](O)[C@H](C)O2)C1)C(=O)c1ccccc1C3=O` [idarubicin] showed a pIC50 ([3]; response level: resistant) of 6.67, a pIC50 ([3]; response level: sensitive on the average) of 7.66 and a pIC50 ([3]; response level: sensitive) of 8.31.
With “OKT3: monoclonal antibody purified from OKT3 hybridoma culture supernatant” the “increase of the signal peak compared to the baseline value” ([1]; OKT3 10 μg/mL, average of a series of 3 experiments) was 178%+/−90%.
